# Experiments:
# [1] = target: T1, HRAS^G12V interacting with PI3Kα, PI3Kγ, CRAF-RBD or full-length CRAF and RALGDS-RBD (Homo sapiens, UniProt P01112, G12V); assay: BRET2 RAS-effector PPI assay, HRAS G12V; type: cell-based; details: HEK293T, 5, 10 and 20 μM
# T1 construct: Transfection vector encoded full-length RAS was fused to the donor molecule RLuc8; expressed in transfected cells; host or cells: HEK293T
# From the text: (§1) Fig. 4 Abd-7 disrupting RAS-effector interactions. HEK293T cells were transfected with different BRET-based RAS biosensor expression vectors to evaluate the inhibition of RAS PPI in cells by compound Abd-7. Transfection vector encoded full-length RAS was fused to the donor molecule RLuc8 and the effectors fused to the acceptor molecule GFP[2]. a Effect of Abd-2 and Abd-7 on KRAS^G12D interaction with PI3Kα, PI3Kγ, CRAF or RALGDS. The BRET signal is plotted as a % of control cells treated with DMSO only and dose response to 5, 10 and 20 μM of each compound. b Effect of Abd-2 and Abd-7 on the BRET signal from interaction of KRAS^G12 mutants (Rluc8-KRAS^G12) and full-length CRAF (GFP[2]-CRAF FL). c, d Effect of Abd-2 and Abd-7 on the interaction of NRAS^Q61H (c) and HRAS^G12V (d) with various RAS effectors domain and with full-length CRAF. The BRET ratio corresponds to the light emitted by the GFP[2] acceptor constructs (515 nm ± 30) upon addition of Coelenterazine 400a divided by the light emitted by the RLuc8 donor constructs (410 nm ± 80). The normalized BRET ratio is the BRET ratio normalized to the DMSO negative and calculated as follows: (BRETcompound/BRETDMSO) x 100, where BRETcompound corresponds to the BRET ratio for the compound-treated cells, BRETDMSO to the DMSO-treated cells. Each experiment was repeated at least three times. […]
# [2] = target: T2, KRAS^G12D interaction with PI3Kα, PI3Kγ, CRAF RBD and RALGDS RA (Homo sapiens, UniProt P01116, G12D); assay: BRET2 RAS-effector PPI assay, KRAS G12D; type: cell-based; details: HEK293T, 5, 10 and 20 μM, 20 h
# T2 construct: Transfection vector encoded full-length RAS was fused to the donor molecule RLuc8; expressed in transfected cells; host or cells: HEK293T
# From the text: as §1
# [3] = tested on: ERK1/2 phosphorylation in H358 cells (KRAS^G12C); assay: Biomarker phosphorylation assay, pERK, H358; type: cell-based, human; details: H358, 2-20 μM, 3 h, EGF 10 min
# Description: Fig. 5 Abd-7 results on RAS-dependent signalling pathways and cell viability. a, b DLD-1 (a) or H358 (b) cells were serum-starved for 24 h, incubated in mono-layer with Abd-7 in a range from 2, 5, 10 and 20 μM for 3 h and stimulated with EGF 10 min. Proteins were extracted and separated by SDS-PAGE and transferred to membranes for Western analysis with anti-pAKT, anti-pERK, anti-pan AKT and anti-pan ERK. Anti-cyclophilin B antibody was the loading control. Signal was developed using standard ECL. c–e Effects of compounds Abd-2, Abd-4, Abd-5, Abd-6, and Abd-7 on the viability of human cancer cells lines was assessed for a 2-D culture of DLD-1 (mutant KRAS^G13D) cells and HT1080 cells (mutant NRAS^Q61K). The cells were treated with a dose range from 0 μM to 20 μ and incubated for 72 h when cell viability was assessed using CellTitreGlo. […] Each experiment was repeated at least three times (a, b) and four times (c, d). Where error bars are presented, they correspond to mean values ± SD of biological repeats
# A total of 450,000 DLD1 or 640,000 H358 cells were seeded per well of a six well plate. Approximately, 20 h later, the medium was removed, the cells washed twice with PBS and DMEM without FBS was added and left for 24 h. […] Cell lysates were sonicated with a Branson Sonifier and the protein concentrations determined by using the Pierce BCA protein assay kit (Thermo-Fisher). […]
"effect on BRET signal, HRAS^G12V with effectors [1]","effect on BRET signal, KRAS^G12D with PI3Kα, PI3Kγ, CRAF RBD, RALGDS RA [2]",Structure (SMILES),inhibition of ERK1/2 phosphorylation [3]
does not,no effect,O=C(NCC1COc2ccccc2O1)c1ccco1 (centres unmarked) [Abd-2],–
interferes,reduces the BRET signal,COc1nc(-c2cccc3c2OCCO3)ccc1Nc1ccc(CN(C)C)cc1 [Abd-7],diminution of pERK levels
